Several values for one entry are separate records, joined by “and”; a condition that tells them apart may be missing. Identical values can stand only once. Like-named read-outs stand apart in the source and are kept apart here.
Key:
CDK13 = target: T1, CDK13 (Homo sapiens, UniProt Q14004+Q16531); experiment: Label-free quantitative mass spectrometry in MDA-MB-231 cells, CDK13; format: cell-based
T1 construct: endogenous in cells; host or cells: MDA-MB-231
Procedure: (§1) MDA-MB-231 cells were treated with DMSO or a cyclin K degrader compound at 1 µM for 5 h. Cells were collected by centrifugation and washed with phosphate-buffered saline before snap freezing in liquid nitrogen. Cells were lysed by addition of lysis buffer (8 M urea, 50 mM NaCl, 50 mM 4-(2-hydroxyethyl)-1-piperazineethanesulfonic acid (EPPS) pH 8.5, and protease and phosphatase inhibitors) and homogenization by bead beating (BioSpec) for three repeats of 30 s at 2,400 rpm. Bradford assay was used to determine the final protein concentration in the clarified cell lysate. Then 50 µg of protein for each sample was reduced, alkylated and precipitated using methanol/chloroform as previously described, and the resulting washed precipitated protein was allowed to air dry. Precipitated protein was resuspended in 4 M urea, 50 mM HEPES pH 7.4, followed by dilution to 1 M urea with the addition of 200 mM EPPS, pH 8. Proteins were first digested with LysC (1:50; enzyme:protein) for 12 h at room temperature. The LysC digestion was diluted to 0.5 M urea with 200 mM EPPS pH 8 followed by digestion with trypsin (1:50; enzyme:protein) for 6 h at 37 °C. Sample digests were acidified with formic acid to a pH of 2–3 before desalting using C18 solid phase extraction plates (SOLA, Thermo Fisher Scientific). Desalted peptides were dried in a vacuum-centrifuged and reconstituted in 0.1% formic acid for liquid chromatography–mass spectrometry analysis.
(§2) Data were collected using a TimsTOF Pro2 (Bruker Daltonics) coupled to a nanoElute LC pump (Bruker Daltonics) via a CaptiveSpray nano-electrospray source. Peptides were separated on a reversed-phase C18 column (25 cm × 75 µm inner diameter, […], IonOpticks) containing an integrated captive spray emitter. Peptides were separated using a 50 min gradient of 2–30% buffer B (acetonitrile in 0.1% formic acid) with a flow rate of 250 nl min^−1 and column temperature maintained at 50 °C.
(§3) Data-dependent acquisition (DDA) was performed in Parallel Accumulation-Serial Fragmentation (PASEF) mode to determine effective ion mobility windows for downstream diaPASEF data collection. The ddaPASEF parameters included: 100% duty cycle using accumulation and ramp times of 50 ms each, one Trapped Ion Mobility Spectrometry(TIMS)-MS scan and ten PASEF ramps per acquisition cycle. The TIMS-MS survey scan was acquired between 100 m/z and 1,700 m/z and 1/K0 of 0.7–1.3 V s cm^−2. Precursors with one to five charges were selected, and those that reached an intensity threshold of 20,000 arbitrary units were actively excluded for 0.4 min. The quadrupole isolation width was set to 2 m/z for m/z < 700 and 3 m/z for m/z > 800, with the m/z between 700 m/z and 800 m/z being interpolated linearly. […] To perform diaPASEF, the precursor distribution in the DDA m/z-ion mobility plane was used to design an acquisition scheme for data-independent acquisition (DIA) data collection that included two windows in each 50 ms diaPASEF scan. Data were acquired using 16 of these 25 Da precursor double window scans (creating 32 windows) that covered the diagonal scan line for doubly and triply charged precursors, with singly charged precursors able to be excluded by their position in the m/z-ion mobility plane. These precursor isolation windows were defined between 400 m/z and 1,200 m/z and 1/K0 of 0.7–1.3 V s cm^−2.
(§4) DirectDIA mode includes first extracting the DIA data into a collection of MS2 spectra which are searched using Spectronaut’s Pulsar search engine. The search results are then used to generate a spectral library which is then employed for the targeted analysis of the DIA data. MS/MS spectra were searched against a Swissprot human database (January 2021). Database search criteria largely followed the default settings for directDIA including: tryptic with two missed cleavages, fixed carbomidomethylation of cysteine, and variable oxidation of methionine and acetylation of protein N-termini and precursor Q-value (FDR) cut-off of 0.01. […]

CDK12 = target: T2, CDK12 (Homo sapiens, UniProt Q16531+Q9NYV4); experiment: Label-free quantitative mass spectrometry in MDA-MB-231 cells, CDK12; format: cell-based
T2 construct: endogenous in cells; host or cells: MDA-MB-231
Procedure: as §1, §2, §3, §4

CDK12–cyclin K and DDB1 = target: T3, CDK12–cyclin K and DDB1 (Homo sapiens, UniProt Q16531+Q9NYV4, K965R); experiment: TR-FRET ternary complex formation assay (compound titration); format: binding; conditions: for TR-FRET signal at compound concentration: replicate titrations
T3 construct: His6–CDK12 (a.a. 713–1,052); full-length or beta-propeller B domain deletion (ΔBPB: a.a. 396–705 deleted) constructs of His6–DDB1ΔBPB, StrepII–Avi–DDB1, or His6–Spy–DDB1; made in house; host or cells: Trichoplusia ni High Five insect cells (baculovirus)
How it was run: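 TR-FRET ratio 520/490 nm; 70 μs delay before read to suppress background.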

cyclin K = experiment: Label-free quantitative mass spectrometry in MDA-MB-231 cells, cyclin K; format: cell-based, human
Procedure: as §1, §2, §3, §4

[1] = system: cyclin K–eGFP degradation reporter; experiment: Cyclin K reporter stability analysis (dual-color cyclin K–eGFP reporter); format: cell-based, human; conditions: source data sheet correlations; read-out: DC50
How it was run: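 First, reporter-bearing HEK293T–Cas9 cells are plated at 1 × 10^6 ml^−1. Next, drug or vehicle is added for 5 h. Finally, geometric-mean eGFP and mCherry signals of round, mCherry-positive cells are measured cytometrically, and their ratio is referenced to the DMSO average.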

HEK293T cells = experiment: Drug sensitivity assay (CellTiter-Glo viability) with or without MLN4924 pretreatment; format: cell-based, human; conditions: Supplementary Table 2
How it was run: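 Luminescent ATP read-out (CellTiter-Glo) after 3 days of drug exposure, normalised to DMSO controls. Cells were HEK293T–Cas9, pretreated with 100 nM MLN4924 or DMSO for 2 h before drug dispensing.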

[2] = label-free quantitative MS, replicate values
[3] = normalised to DMSO = 1, replicate values

T3 sequence (Q9NYV4 713-1052 K965R): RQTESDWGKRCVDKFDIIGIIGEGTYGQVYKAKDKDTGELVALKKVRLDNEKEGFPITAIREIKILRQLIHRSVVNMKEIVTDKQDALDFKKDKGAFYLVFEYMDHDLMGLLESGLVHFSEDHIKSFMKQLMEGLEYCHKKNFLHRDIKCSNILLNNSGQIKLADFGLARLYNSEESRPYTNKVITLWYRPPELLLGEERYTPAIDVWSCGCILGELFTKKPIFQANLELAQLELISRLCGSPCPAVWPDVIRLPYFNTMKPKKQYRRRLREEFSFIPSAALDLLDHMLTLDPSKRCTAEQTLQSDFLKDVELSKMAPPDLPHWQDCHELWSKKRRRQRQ
T3 sequence (O75909 1-267 partner): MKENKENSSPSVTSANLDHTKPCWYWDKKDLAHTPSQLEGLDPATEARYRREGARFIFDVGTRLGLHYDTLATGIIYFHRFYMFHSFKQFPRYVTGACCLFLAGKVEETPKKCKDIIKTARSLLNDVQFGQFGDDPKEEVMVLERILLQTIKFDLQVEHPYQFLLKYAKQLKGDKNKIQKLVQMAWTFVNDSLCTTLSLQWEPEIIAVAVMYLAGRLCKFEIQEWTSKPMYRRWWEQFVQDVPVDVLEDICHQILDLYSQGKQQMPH
T3 sequence (Q16531 whole entry): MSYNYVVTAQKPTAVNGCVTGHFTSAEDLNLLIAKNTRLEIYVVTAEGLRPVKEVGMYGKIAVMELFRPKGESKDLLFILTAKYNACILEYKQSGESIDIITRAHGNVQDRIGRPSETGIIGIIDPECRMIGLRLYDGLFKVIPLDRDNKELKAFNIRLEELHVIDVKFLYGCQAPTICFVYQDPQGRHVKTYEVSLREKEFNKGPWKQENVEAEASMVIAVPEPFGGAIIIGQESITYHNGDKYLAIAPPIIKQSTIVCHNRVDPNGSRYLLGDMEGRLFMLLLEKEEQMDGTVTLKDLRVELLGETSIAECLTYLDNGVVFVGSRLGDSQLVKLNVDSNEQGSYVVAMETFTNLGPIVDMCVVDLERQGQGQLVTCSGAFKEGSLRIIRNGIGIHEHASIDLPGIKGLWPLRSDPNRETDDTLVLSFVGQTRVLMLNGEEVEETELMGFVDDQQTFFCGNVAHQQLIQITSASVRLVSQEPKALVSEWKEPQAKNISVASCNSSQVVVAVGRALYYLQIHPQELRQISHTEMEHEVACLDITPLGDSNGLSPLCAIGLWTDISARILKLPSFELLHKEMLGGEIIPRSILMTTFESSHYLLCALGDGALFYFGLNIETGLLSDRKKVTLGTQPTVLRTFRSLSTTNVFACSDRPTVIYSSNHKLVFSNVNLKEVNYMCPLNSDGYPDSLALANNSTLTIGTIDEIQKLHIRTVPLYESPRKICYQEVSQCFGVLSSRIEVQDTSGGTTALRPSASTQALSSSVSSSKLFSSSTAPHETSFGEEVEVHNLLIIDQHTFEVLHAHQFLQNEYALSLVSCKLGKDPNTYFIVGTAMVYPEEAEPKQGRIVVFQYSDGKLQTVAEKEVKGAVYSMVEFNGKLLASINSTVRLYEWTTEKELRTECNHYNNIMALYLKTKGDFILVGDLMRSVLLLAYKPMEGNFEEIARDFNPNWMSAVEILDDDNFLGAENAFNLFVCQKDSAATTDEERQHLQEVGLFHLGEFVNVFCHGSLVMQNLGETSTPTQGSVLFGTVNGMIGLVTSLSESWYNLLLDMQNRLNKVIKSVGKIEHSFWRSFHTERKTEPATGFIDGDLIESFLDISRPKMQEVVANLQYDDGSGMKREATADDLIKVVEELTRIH
T2 sequence (Q9NYV4 whole entry): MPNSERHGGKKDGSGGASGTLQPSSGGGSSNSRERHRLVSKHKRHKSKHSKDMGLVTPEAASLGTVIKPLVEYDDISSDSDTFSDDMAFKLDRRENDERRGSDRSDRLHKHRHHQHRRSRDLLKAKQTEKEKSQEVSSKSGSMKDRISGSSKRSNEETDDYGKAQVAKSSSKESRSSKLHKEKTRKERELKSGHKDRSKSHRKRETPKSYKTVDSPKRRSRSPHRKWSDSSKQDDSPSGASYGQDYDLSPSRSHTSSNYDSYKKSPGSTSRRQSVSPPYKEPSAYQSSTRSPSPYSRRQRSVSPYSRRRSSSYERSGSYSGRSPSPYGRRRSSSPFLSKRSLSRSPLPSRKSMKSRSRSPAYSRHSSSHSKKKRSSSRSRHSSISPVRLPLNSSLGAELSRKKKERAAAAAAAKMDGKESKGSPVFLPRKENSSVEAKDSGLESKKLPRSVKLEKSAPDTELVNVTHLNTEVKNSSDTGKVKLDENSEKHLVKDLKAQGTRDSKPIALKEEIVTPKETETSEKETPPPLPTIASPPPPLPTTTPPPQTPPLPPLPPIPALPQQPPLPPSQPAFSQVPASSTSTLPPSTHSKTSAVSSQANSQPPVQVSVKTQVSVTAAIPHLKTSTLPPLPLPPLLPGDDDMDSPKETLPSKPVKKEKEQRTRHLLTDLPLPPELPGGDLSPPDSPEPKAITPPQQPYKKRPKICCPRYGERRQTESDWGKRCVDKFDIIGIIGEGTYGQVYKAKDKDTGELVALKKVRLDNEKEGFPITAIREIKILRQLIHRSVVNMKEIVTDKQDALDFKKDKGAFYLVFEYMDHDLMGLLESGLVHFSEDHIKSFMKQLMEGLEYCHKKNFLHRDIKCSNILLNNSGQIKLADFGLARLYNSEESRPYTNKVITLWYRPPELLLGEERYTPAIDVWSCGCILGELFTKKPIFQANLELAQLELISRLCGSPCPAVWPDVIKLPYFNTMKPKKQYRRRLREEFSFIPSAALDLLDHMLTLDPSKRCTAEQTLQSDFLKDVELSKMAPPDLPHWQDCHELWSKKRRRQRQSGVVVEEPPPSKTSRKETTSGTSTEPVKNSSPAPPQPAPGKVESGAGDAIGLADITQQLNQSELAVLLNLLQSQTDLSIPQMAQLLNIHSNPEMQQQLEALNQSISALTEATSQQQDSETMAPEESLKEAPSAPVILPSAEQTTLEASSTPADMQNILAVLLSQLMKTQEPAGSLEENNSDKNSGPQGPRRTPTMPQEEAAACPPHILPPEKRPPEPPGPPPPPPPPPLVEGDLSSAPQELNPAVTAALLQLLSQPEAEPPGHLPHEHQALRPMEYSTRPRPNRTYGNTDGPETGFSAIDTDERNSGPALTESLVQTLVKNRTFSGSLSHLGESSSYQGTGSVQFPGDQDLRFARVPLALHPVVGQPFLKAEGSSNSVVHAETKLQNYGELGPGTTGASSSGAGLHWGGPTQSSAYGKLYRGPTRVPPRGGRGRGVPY
T2 sequence (O75909 whole entry partner): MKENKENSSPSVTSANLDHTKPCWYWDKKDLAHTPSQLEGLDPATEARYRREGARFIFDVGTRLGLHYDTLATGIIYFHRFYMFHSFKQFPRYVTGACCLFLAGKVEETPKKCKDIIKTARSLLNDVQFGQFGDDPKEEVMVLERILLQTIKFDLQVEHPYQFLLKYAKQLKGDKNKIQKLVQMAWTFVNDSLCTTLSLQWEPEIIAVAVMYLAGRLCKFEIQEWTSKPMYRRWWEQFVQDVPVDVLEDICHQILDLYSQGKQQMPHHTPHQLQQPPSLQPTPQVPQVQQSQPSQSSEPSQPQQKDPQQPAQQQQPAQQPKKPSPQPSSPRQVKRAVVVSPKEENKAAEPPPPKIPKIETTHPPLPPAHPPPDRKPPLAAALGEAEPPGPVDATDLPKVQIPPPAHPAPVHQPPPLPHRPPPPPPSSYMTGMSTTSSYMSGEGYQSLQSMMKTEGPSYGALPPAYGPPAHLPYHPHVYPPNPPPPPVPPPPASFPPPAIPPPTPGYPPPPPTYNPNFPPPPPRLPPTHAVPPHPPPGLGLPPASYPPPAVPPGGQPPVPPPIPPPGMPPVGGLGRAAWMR
T2 sequence (Q16531 2-1140 limits assumed): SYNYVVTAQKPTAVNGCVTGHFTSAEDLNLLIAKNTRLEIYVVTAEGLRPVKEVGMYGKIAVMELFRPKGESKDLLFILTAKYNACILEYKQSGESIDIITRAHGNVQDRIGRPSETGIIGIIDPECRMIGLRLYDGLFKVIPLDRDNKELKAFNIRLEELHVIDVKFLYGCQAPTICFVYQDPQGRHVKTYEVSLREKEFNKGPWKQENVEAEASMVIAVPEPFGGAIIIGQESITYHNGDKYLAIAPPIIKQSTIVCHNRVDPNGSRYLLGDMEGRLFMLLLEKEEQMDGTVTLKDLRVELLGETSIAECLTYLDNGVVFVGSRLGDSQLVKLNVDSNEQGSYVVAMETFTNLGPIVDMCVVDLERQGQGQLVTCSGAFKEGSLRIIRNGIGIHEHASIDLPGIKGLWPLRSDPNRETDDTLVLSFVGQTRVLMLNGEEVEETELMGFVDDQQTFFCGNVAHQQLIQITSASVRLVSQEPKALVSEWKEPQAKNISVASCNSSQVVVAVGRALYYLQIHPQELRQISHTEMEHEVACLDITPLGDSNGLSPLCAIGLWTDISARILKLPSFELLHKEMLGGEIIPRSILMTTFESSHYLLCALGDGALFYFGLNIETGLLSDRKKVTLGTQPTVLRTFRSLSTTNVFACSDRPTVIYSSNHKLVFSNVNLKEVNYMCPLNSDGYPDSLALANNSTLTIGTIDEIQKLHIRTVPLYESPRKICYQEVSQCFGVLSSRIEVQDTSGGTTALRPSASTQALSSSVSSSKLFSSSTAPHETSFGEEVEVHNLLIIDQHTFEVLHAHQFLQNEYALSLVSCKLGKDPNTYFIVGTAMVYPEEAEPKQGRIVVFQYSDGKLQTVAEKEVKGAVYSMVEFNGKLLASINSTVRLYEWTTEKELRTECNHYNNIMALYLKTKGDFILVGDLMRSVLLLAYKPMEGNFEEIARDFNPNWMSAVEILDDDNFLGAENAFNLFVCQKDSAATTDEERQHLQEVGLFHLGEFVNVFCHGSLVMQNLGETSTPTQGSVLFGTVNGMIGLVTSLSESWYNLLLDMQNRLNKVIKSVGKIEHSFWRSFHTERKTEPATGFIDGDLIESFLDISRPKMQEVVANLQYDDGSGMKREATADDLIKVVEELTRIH

CC[C@H](CO)Nc1nc(NCCCc2cccc(C)c2)c2ncn(C(C)C)c2n1 [DS30]
CDK13 peptide count (CDK13; [2]): 256.293 and 280.454 | CDK13 peptide count (DMSO-normalised) (CDK13; [3]): 0.3813 and 0.431 | CDK12 peptide count (CDK12; [2]): 530.324 and 557.769 | CDK12 peptide count (DMSO-normalised) (CDK12; [3]): 0.5892 and 0.5761 | TR-FRET signal at compound concentration (CDK12–cyclin K and DDB1; compound concentration 0.468 nM): 0.2538 and 0.2487 and 0.2092 | TR-FRET signal at compound concentration (CDK12–cyclin K and DDB1; compound concentration 2.16 nM): 0.3096 and 0.3093 and 0.2708 | TR-FRET signal at compound concentration (CDK12–cyclin K and DDB1; compound concentration 3.6 nM): 0.4411 and 0.4525 and 0.4039 | TR-FRET signal at compound concentration (CDK12–cyclin K and DDB1; compound concentration 7.92001 nM): 0.6962 and 0.7001 and 0.6519 | TR-FRET signal at compound concentration (CDK12–cyclin K and DDB1; compound concentration 15.84 nM): 1.209 and 1.183 and 1.188 | TR-FRET signal at compound concentration (CDK12–cyclin K and DDB1; compound concentration 30.96 nM): 1.971 and 1.9872 and 1.9274 | TR-FRET signal at compound concentration (CDK12–cyclin K and DDB1; compound concentration 62.6401 nM): 3.092 and 3.095 and 2.939 | TR-FRET signal at compound concentration (CDK12–cyclin K and DDB1; compound concentration 125.28 nM): 3.635 and 3.6 and 3.694 | TR-FRET signal at compound concentration (CDK12–cyclin K and DDB1; compound concentration 244.8 nM): 4.013 and 4.0411 | TR-FRET signal at compound concentration (CDK12–cyclin K and DDB1; compound concentration 993.601 nM): 3.909 and 4.092 and 4.233 | TR-FRET signal at compound concentration (CDK12–cyclin K and DDB1; compound concentration 2001.6 nM): 4.11 and 4.134 and 4.272 | EC50 (CDK12–cyclin K and DDB1; in vitro complex formation, 50 nM CDK12–cyclin K, 100 nM DDB1, text and figures, read-out: TR-FRET EC50): 0.035 ± 0.001 µM | EC50 (CDK12–cyclin K and DDB1; sheet MOESM7, read-out: log TR-FRET EC50 (converted)): 0.0348 µM | EC50 (CDK12–cyclin K and DDB1; source data sheet correlations, read-out: TR-FRET EC50): 0.0348 µM | cyclin K abundance (label-free MS) (cyclin K; individual replicates, sheet EDF7): 199.985 and 224.267 | cyclin K abundance (label-free MS) (cyclin K; [2]): 199.985 and 224.267 | CCNK peptide count (DMSO-normalised) (cyclin K; [3]): 0.1093 and 0.1247 | average CCNK peptide count (cyclin K; sheet EDF7): 212.126 | DC50 [1]: 0.078 µM | EC50 (HEK293T cells; Homo sapiens, HEK-293T, HEK293T viability, 72 h, compound alone, read-out: Cellular assays EC50): 0.451 µM | Toxicity rescue (HEK293T cells; MLN4924-mediated cytotoxicity rescue, 10 µM used where n.d.): 496%

Source: paper PMC10746543, “Design principles for cyclin K molecular glue degraders” (Nature Chemical Biology, 2023)
